The term EC50 denotes the midpoint of the concentration-response curve. In general, IC50 refers to the concentration needed to halve the response being measured.

Read-outs that look alike come from different tables or passages of the source.

Data set [1] concerns duplex or single-stranded DNA. Kind of data set: Isothermal titration calorimetry (ITC) DNA binding. The settings on record: 40 μM compound, 25° C. How it is done:
Fish sperm DNA (USB Scientific, USA) was dissolved in water and fragmented by sonication in order to generate a random DNA mix. The fragmented DNA was then dialyzed into column buffer absence of glycerol. The 15-mer oligomer comprised of poly d(TC) (Integrated DNA Technologies, USA) was directly prepared in the same buffer without the dialysis step. DNA and compounds were prepared in the same dialysis buffer with added 2.5 mM DTT, 1% DMSO, and 0.005% Tween-20. DNA binding was then assessed by isothermal titration calorimetry (ITC) on a MicroCal iTC200 microcalorimeter (Malvern Instruments, United Kingdom) by titrating 3 μL/injection of 1.2 mg/mL of random DNA (with unknown molar concentration) or 5.3 mg/L of single-stranded DNA into the sample consisting of 40 μM of compound. Experiments were performed at 25° C. with 800 rpm stirring and 3-min spacing in order to allow equilibration. Ethidium bromide (Sigma-Aldrich, USA) was freshly prepared in water. Since the molar concentrations of the DNA ligands were undefined, only raw heat values are depicted.
On the technique in general: In ITC the heat of successive injections is recorded.

For data set [2], the target named is T1, D4 (Vaccinia virus, UniProt P04303, Y163F). The data set is classed as binding. Further details: made in house; host or cells: bacterial cells (IPTG induction); purified for SPR, crude lysate for DARTS.
For data set [3], the target named is T1, D4. The data set is classed as binding. As to conditions: for thermal shift (in words): up to 50 μM.
Data set [4] relates to HSV-1. The data set is classed as cell-based. The settings on record: Vero cells.
Data set [5] concerns human estrogen receptor beta (ERβ-N), MBP fusion. Kind of data set: DARTS, unrelated control protein ERβ-N. The data set is classed as binding. As to conditions: crude cell lysates.
The test system of data set [6] is mD4-VV surrogate virus. The data set is described as follows: microbe, parasite or virus in culture. It is filed as cell-based, mD4/vaccinia hybrid virus. The settings on record: Hybrid virus, BSC-1, read-out: mD4 EC50.
Data set [7] deals with E9/A20/D4 proteins (molluscum mD4) (Molluscum contagiosum virus, UniProt Q98260). Kind of data set: biochemical.
E9/A20/D4 proteins (molluscum mD4), sequence (Q98260 1-226): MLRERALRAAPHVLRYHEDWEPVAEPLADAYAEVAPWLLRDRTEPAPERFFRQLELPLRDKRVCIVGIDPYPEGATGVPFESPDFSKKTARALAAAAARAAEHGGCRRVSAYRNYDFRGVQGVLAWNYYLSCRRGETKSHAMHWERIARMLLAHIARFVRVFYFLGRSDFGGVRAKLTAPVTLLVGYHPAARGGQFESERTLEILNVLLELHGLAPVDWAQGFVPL
Data set [8] deals with VV. Kind of data set: microbe, parasite or virus in culture. As to conditions: Orthopoxvirus vaccinia, BSC-1, read-out: VV EC50. It is filed as cell-based, vaccinia virus.
In data set [9] the target is T2, E9/A20/D4 proteins (vaccinia virus vD4) (Vaccinia virus, UniProt P04303, Y163F).
T2 construct: made in house; host or cells: TNT reticulocyte lysate (in vitro translation)
The data set is classed as biochemical.

In data set [10] the target is T3, MBP (Escherichia coli, UniProt P0AEX9).
T3 construct: made in house; host or cells: bacterial cells, crude lysate
Kind of data set: DARTS, unrelated control protein MBP. It is filed as binding. As to conditions: crude cell lysates.

Data set [11] concerns the target UL30 (DNA polymerase) and UL42 (processivity factor) (Human herpesvirus 1, UniProt P04293+P10226). It is filed as biochemical, HSV-1.
The nature of data set [12]: Solubility in receptor medium. The settings on record: 1×PBS/4% BSA receptor medium, typical IVPT study. An excerpt: For this study, human torso skin was used rather than a membrane. Initially, methods development was done to identify the receiving medium in the reservoir of the Franz cell apparatus which provided the greatest compound solubility so that percentages of full penetration would not be underestimated due to poor solubility.

Data set [13] in a line: Irritancy on human cadaver skin. The settings on record: gel formulated 99. How it is done:
Briefly, gel was applied to shaved skin areas, covered for 24 hours and irritancy was measured daily for 3 days after uncovering using the Draize scoring system.

Data set [14] is described as follows: in vitro. As to conditions: African green monkey.
The target of data set [15] is T1, D4. It is filed as binding. The arrangement: made in house; host or cells: bacterial cells (IPTG induction); purified for SPR, crude lysate for DARTS. This is another data set of the same source.

UL30 (DNA polymerase) and UL42 (processivity factor), sequence (P10226 whole entry): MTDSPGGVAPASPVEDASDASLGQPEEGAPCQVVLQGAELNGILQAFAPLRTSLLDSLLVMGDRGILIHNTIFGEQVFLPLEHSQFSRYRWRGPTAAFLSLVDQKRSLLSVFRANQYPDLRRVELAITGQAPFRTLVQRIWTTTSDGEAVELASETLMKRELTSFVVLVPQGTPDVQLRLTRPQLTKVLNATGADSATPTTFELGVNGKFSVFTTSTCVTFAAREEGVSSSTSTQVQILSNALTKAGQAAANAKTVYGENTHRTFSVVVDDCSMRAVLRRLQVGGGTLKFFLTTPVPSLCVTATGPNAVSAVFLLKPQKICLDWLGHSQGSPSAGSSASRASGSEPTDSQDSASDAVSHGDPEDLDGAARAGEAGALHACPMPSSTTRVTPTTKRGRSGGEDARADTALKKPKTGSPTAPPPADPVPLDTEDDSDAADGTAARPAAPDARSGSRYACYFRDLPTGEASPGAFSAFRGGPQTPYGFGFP
UL30 (DNA polymerase) and UL42 (processivity factor), sequence (P04293 whole entry): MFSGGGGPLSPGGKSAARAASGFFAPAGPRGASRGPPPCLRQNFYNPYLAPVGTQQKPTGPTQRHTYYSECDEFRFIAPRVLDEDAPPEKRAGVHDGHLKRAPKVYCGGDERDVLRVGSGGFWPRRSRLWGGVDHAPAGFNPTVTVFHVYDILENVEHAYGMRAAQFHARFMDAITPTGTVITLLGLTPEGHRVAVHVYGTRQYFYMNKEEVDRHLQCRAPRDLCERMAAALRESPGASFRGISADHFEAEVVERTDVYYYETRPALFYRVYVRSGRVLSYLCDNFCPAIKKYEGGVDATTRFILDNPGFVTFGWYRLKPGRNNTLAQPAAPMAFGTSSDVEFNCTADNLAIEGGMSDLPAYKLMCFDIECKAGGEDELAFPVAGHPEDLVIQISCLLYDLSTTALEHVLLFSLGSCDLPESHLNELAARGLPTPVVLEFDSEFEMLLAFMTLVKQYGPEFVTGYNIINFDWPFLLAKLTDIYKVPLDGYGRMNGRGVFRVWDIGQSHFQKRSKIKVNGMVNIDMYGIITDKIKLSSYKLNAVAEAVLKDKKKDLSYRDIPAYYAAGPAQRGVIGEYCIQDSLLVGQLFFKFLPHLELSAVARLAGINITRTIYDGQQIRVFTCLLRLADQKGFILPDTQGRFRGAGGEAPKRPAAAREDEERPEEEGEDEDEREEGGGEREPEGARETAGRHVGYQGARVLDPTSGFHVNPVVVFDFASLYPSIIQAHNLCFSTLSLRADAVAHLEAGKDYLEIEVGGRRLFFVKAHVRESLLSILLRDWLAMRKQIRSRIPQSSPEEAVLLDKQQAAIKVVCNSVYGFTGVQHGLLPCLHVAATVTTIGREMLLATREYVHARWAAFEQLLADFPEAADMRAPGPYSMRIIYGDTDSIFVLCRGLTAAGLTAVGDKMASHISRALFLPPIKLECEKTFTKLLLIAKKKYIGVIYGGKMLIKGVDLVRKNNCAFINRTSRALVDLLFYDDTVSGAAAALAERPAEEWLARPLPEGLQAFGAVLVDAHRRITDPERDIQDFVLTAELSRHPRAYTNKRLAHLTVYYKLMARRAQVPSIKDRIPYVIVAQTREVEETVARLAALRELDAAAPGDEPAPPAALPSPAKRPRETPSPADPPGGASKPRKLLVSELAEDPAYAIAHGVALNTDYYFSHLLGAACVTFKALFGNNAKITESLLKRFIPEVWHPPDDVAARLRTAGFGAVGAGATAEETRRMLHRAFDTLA

On to `CCC(C(=O)Nc1sc(C(N)=O)c(C)c1C(=O)OC)c1ccccc1` (stereo not shown) [Compound 1, methyl 5-carbamoyl-4-methyl-2-(2-phenylbutanamido)thiophene-3-carboxylate], for which the “DNA binding heat traces (in words)” value in data set [1] is “no appreciable total heats”. In [2], the “effect on D4 protein levels after Pronase proteolysis (in words)” value (“effect on D4 protein levels” for short) is “increase in D4 protein levels”. Further, the ΔTm in data set [3] (25 µM) is listed as −0.86; in data set [3] (50 µM), −1.55. In data set [4], the “antiviral activity against HSV-1 infection (in words)” value was “lack of antiviral activity”. Moreover, in data set [5], the “effect on ERβ-N protein levels after proteolysis (in words)” value is reported as “inability”. The EC50 in data set [6] was 22.9 µM; in data set [8] it was 15.1 µM. Also, inhibition in data set [7] was half-maximal at 16.3 µM (IC50). In addition, the “inhibition of VACV DNA synthesis compared with mD4 reaction (in words)” value in data set [9] is “Nearly identical inhibition”. The “effect on MBP protein levels after proteolysis (in words)” value in [10] was “inability”. Also, the “inhibition of DNA synthesis using HSV-1 proteins (in words)” value in [11] is on record as “no inhibition”.
Take `O=C(NCc1ccc(Cl)cc1)c1nnsc1NC(=O)N1CCN(c2ccccn2)CC1` [Compound 83, N-(4-chlorobenzyl)-5-(4-(pyridin-2-yl)piperazine-1-carboxamido)-1,2,3-thiadiazole-4-carboxamide]: the EC50 in data set [6] amounted to 7.7 µM; in data set [8], 7.3 µM. The IC50 in data set [7] was found to be 31.4 µM.
Consider `CCC(C(=O)Nc1sc(C(N)=O)c(C)c1C(=O)OC)c1ccccc1` (single isomer, unassigned) [Compound 29, Methyl 2-(2-phenylbutanamido)-5-carbamoyl-4-methylthiophene-3-carboxylate], for which the EC50 in [6] was 19.7 µM; in [8], 28 µM. Moreover, in data set [7], the IC50 was 13.4 µM.
With `CCC(C(=O)Nc1sc(C(N)=O)c(C)c1C(=O)OC)c1ccc(F)cc1` (stereo not shown) [Compound 99, 5-Carbamoyl-2-[2-(4-fluoro-phenyl)-butyrylamino]-4-methyl-thiophene-3-carboxylic acid methyl ester], in [12], the “solubility sufficient to detect % of the applied amount” value was “up to 143%”. For the same compound, the concentration for a half-maximal effect (EC50) in [6] amounted to 8.8 µM; in data set [8], 9 µM. Also, the IC50 in data set [7] was 8.9 µM. Also, in [13], the irritancy score result was “non-irritant”.
On to `O=C(NCc1ccc(Cl)cc1)c1ccsc1NC(=O)N1CCN(c2ccccn2)CC1` [Compound 111, 4-Pyridin-2-yl-piperazine-1-carboxylic acid [3-(4-chloro-benzyl carbamoyl)-thiophen-2-yl]-amide], for which the “solubility sufficient to detect % of the applied amount” value in [12] is not above 90%. Moreover, the EC50 in data set [6] came to 7 µM. In [7], this compound showed an IC50 of 63.3 µM.
Consider `CCC(C(=O)Nc1sc(C(=O)O)c(C)c1C(=O)OC)c1ccc(C(F)(F)F)cc1` (stereo not shown) [Compound 199, 4-(methoxycarbonyl)-5-(2-(4-(trifluoromethyl)phenyl)butanamido)-3-methylthiophene-2-carboxylic acid], for which the CC50 in data set [14] is more than 100 µM. Further, in data set [6], the EC50 came out at 17.9 µM.
Regarding `O=C(NN1C(=O)[C@@H]2[C@@H]3C=C[C@@H]([C@H]4C[C@@H]34)[C@@H]2C1=O)c1ccc(C(F)(F)F)cc1` [ST-246], in [2], the “effect on D4 protein levels” value is “did not affect the protein levels of D4”. Also, the figures for the ΔTm in data set [3] (25 µM) and in [3] (50 µM) were −0.37 ± 0.08; ° C and −0.26 ± 0.10 °C, respectively. Further, the “thermal shift (in words)” value in [3] is “no thermal shifts”. Besides, in data set [15], the “SPR binding to D4 (in words)” value was “near-baseline signals”.
Consider `Nc1ccn(C[C@@H](CO)OCP(=O)(O)O)c(=O)n1` [CDV, 1-((3-hydroxy-2-phosphonylmethoxy)propyl)cytosine], for which the “effect on D4 protein levels” value in data set [2] is given as “did not affect the protein levels of D4”. Also, the ΔTm was −0.37 ± 0.14; ° C in [3] (25 µM) and −0.27 ± 0.37 °C in data set [3] (50 µM). In addition, in [3], the “thermal shift (in words)” value is listed as “no thermal shifts”. Also, the “SPR binding to D4 (in words)” value in data set [15] is “near-baseline signals”.
Take `O=C(NCCc1ccccn1)Nc1snnc1C(=O)NCc1ccc(Cl)cc1` [Compound 185, 1-(4-(4-Chlorobenzylcarbamoyl)-1,2,3-thiadiazol-5-yl)-3-(2-(pyridin-2-yl)ethyl)urea]: the EC50 in data set [6] was 9.6 µM. This compound also came in with an IC50 in data set [7] of 64.7 µM.

These data come from patent publication US20250295652A1, “Inhibitors of Molluscum Contagiosum Infection and Methods Using the Same” (priority 2021, published 2025).
